From publication PMC7503597 (International Journal of Molecular Sciences, 2020)

Target: T1, D3R-ELucC (Homo sapiens, UniProt P35462)
T1 construct: gene DRD3
Experiment: cell-based
Conditions: HEK-293T, read-out: β-Arrestin2 Recruitment / Emax [%]

T1 sequence (P35462 whole entry): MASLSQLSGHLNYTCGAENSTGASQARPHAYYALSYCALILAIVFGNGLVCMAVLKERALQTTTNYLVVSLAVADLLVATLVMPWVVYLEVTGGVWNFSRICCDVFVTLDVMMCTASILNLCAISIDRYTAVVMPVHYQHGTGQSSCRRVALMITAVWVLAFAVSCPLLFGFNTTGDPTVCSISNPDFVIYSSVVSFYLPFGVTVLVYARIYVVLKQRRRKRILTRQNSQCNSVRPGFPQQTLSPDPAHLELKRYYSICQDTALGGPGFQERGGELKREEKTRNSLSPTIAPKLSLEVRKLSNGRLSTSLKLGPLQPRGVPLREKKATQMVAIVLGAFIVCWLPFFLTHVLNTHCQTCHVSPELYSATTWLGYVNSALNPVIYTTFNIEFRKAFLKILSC

Emax: -26 ± 8%
Structure (SMILES): CCN1CCC[C@H]1CNC(=O)c1cc(S(N)(=O)=O)ccc1OC [S-(−)-sulpiride]
